Laboratory results reported in patent US8106055B2, “Substituted amide compounds” (Gruenenthal GmbH, priority 2007, dated 2012).

What was measured:
[1] = biological target: T1, human μ opiate receptor (Homo sapiens, UniProt P35372); experiment: Affinity for the human μ opiate receptor ([3H]-naloxone displacement, CHO-K1 receptor membrane preparation, SPA); format: binding; conditions: test concentration of 1 μM
T1 construct: purchased PerkinElmer Life Sciences, Zaventem, Belgium RB-HOM; host or cells: CHO-K1 cells (membrane preparation)
How it was run: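 SPA, CHO-K1 hμ membranes; 1 nmol/l [3H]-naloxone; Tris-HCl 50 mmol/l + 0.06% BSA; 90 min RT; NSB with 100 μmol/l naloxone; β-counting. Readout: % inhibition of specific binding at 1 μM test compound.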

[2] = biological target: T2, serotonin (5-HT) reuptake (Rattus norvegicus, UniProt P31652); experiment: Inhibition of serotonin (5HT) reuptake in synaptosomes from rat brain; format: biochemical; conditions: test concentration of 10 μM
T2 construct: synaptosomes are freshly isolated from areas of the rat brain; from tissue; host or cells: rat brain synaptosomes (P2 fraction)
How it was run: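 Compounds screened at 10 μM and reported as percent inhibition of serotonin uptake. Uptake measured in a freshly prepared P2 synaptosomal fraction from rat brain.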

T2 sequence (P31652 whole entry): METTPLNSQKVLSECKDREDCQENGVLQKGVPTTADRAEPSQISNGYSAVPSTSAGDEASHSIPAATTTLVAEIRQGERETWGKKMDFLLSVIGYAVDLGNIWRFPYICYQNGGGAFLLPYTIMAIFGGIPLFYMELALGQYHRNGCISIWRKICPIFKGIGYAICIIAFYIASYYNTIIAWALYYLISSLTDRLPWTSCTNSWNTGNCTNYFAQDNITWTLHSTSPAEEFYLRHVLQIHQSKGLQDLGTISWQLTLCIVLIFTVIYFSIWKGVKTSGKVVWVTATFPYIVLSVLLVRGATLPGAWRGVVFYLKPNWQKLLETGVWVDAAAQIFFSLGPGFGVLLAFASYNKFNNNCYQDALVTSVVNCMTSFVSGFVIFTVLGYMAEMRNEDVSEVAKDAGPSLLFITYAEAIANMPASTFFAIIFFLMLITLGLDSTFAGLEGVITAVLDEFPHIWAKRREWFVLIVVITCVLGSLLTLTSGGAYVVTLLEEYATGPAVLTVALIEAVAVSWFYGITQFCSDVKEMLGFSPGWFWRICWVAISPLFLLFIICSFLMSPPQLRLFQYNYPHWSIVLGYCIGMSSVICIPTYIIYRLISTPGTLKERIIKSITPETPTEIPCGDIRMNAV
T1 sequence (P35372 whole entry): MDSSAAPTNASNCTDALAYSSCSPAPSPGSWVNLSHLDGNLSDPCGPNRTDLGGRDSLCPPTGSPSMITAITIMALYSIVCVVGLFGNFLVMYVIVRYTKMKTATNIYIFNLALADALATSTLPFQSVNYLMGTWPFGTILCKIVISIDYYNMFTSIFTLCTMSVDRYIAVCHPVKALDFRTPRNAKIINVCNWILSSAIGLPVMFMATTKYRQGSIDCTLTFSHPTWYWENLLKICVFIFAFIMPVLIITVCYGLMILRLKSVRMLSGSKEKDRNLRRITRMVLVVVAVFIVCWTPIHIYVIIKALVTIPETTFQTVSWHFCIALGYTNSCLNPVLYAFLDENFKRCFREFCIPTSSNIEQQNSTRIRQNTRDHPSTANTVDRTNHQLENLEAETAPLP

## COc1ccc(S(=O)(=O)N2CCCCC2COCC(=O)NCCC2CCC(C(c3ccc(F)cc3)N(C)C)CC2)cc1 (stereo not drawn) [Example 349]
[1]
  μ (binding on the μ opioid receptor, % inhibition): 66%
[2]
  5-HT (inhibition of reuptake of serotonin, % inhibition): 94%

## CN(C)C(c1cccc(F)c1)C1CCC(CNC(=O)COC2CCN(S(=O)(=O)c3ccccc3)C2)CC1 (stereo not drawn) [Example 355]
[1]
  μ (binding on the μ opioid receptor, % inhibition): 66%
[2]
  5-HT (inhibition of reuptake of serotonin, % inhibition): 102%

## CN(C)C(c1cccc(F)c1)C1CCC(CNC(=O)COCCN(Cc2ccccc2)S(=O)(=O)c2ccccc2)CC1 (stereo not drawn) [Example 296]
[1]
  μ (binding on the μ opioid receptor, % inhibition): 64%
[2]
  5-HT (inhibition of reuptake of serotonin, % inhibition): 96%

## CN(C)C(c1ccc(F)cc1)C1CCC(CCNC(=O)COCC2CCCCN2S(=O)(=O)c2ccc(Cl)c(Cl)c2)CC1 (stereo not drawn) [Example 337]
[1]
  μ (binding on the μ opioid receptor, % inhibition): 64%
[2]
  5-HT (inhibition of reuptake of serotonin, % inhibition): 96%

## Cc1ccc(S(=O)(=O)N(C)CCOCC(=O)NCC2CCC(C(c3ccc(F)cc3)N(C)C)CC2)cc1 (stereo not drawn) [Example 362]
[1]
  μ (binding on the μ opioid receptor, % inhibition): 54%
[2]
  5-HT (inhibition of reuptake of serotonin, % inhibition): 105%

## CN(C)C(c1cccs1)C1CCC(NC(=O)COCCN2CCN(S(=O)(=O)c3ccccc3)CC2)CC1 (stereo not drawn) [Example 341]
[1]
  μ (binding on the μ opioid receptor, % inhibition): 64%
[2]
  5-HT (inhibition of reuptake of serotonin, % inhibition): 85%

## COc1cc(C)c(S(=O)(=O)N2CCC(CCOCC(=O)NCC3CCC(C(c4cccc(F)c4)N(C)C)CC3)CC2)c(C)c1C (stereo not drawn) [Example 319]
[1]
  μ (binding on the μ opioid receptor, % inhibition): 71%
[2]
  5-HT (inhibition of reuptake of serotonin, % inhibition): 87%

## COc1cc(C)c(S(=O)(=O)N2CCC(OCC(=O)NCCC3CCC(C(c4cccc(F)c4)N(C)C)CC3)C2)c(C)c1 (stereo not drawn) [Example 307]
[1]
  μ (binding on the μ opioid receptor, % inhibition): 73%
[2]
  5-HT (inhibition of reuptake of serotonin, % inhibition): 97%

## CN(C)C(c1ccc(Cl)cc1)C1CCC(CNC(=O)COCCN(C)S(=O)(=O)c2ccc(Cl)cc2)CC1 (stereo not drawn) [Example 284]
[1]
  μ (binding on the μ opioid receptor, % inhibition): 70%
[2]
  5-HT (inhibition of reuptake of serotonin, % inhibition): 87%

## CN(C)C(c1ccc(Cl)cc1)C1CCC(CNC(=O)COC2CCN(S(=O)(=O)c3ccccc3)C2)CC1 (stereo not drawn) [Example 299]
[1]
  μ (binding on the μ opioid receptor, % inhibition): 63%
[2]
  5-HT (inhibition of reuptake of serotonin, % inhibition): 103%

## COc1ccc(S(=O)(=O)N2CCCCC2COCC(=O)NCCC2CCC(C(c3cccc(F)c3)N(C)C)CC2)c(OC)c1 (stereo not drawn) [Example 281]
[1]
  μ (binding on the μ opioid receptor, % inhibition): 77%
[2]
  5-HT (inhibition of reuptake of serotonin, % inhibition): 89%

## COc1cc(C)c(S(=O)(=O)N2CCN(CCOCC(=O)NCCC3CCC(C(c4ccc(Cl)cc4)N(C)C)CC3)CC2)c(C)c1C (stereo not drawn) [Example 320]
[1]
  μ (binding on the μ opioid receptor, % inhibition): 65%
[2]
  5-HT (inhibition of reuptake of serotonin, % inhibition): 98%

## COc1cc(C)c(S(=O)(=O)N2CCCC(OCC(=O)NC3CCC(C(c4cccc(F)c4)N(C)C)CC3)C2)c(C)c1C (stereo not drawn) [Example 279]
[1]
  μ (binding on the μ opioid receptor, % inhibition): 77%
[2]
  5-HT (inhibition of reuptake of serotonin, % inhibition): 85%

## CN(C)C(c1ccccc1)C1CCC(CNC(=O)COC2CCN(S(=O)(=O)c3ccccc3)CC2)CC1 (stereo not drawn) [Example 300]
[1]
  μ (binding on the μ opioid receptor, % inhibition): 66%
[2]
  5-HT (inhibition of reuptake of serotonin, % inhibition): 94%

## COc1ccc(S(=O)(=O)N2CCCC2COCC(=O)NCC2CCC(C(c3cccc(F)c3)N(C)C)CC2)cc1 (stereo not drawn) [Example 313]
[1]
  μ (binding on the μ opioid receptor, % inhibition): 71%
[2]
  5-HT (inhibition of reuptake of serotonin, % inhibition): 93%

## CN(C)C(c1ccc(F)cc1)C1CCC(NC(=O)COCCN(Cc2ccccc2)S(=O)(=O)c2ccccc2)CC1 (stereo not drawn) [Example 336]
[1]
  μ (binding on the μ opioid receptor, % inhibition): 59%
[2]
  5-HT (inhibition of reuptake of serotonin, % inhibition): 96%

## COc1ccc(S(=O)(=O)N(C)CCOCC(=O)NCC2CCC(C(c3cccc(F)c3)N(C)C)CC2)cc1 (stereo not drawn) [Example 340]
[1]
  μ (binding on the μ opioid receptor, % inhibition): 69%
[2]
  5-HT (inhibition of reuptake of serotonin, % inhibition): 81%

## CN(C)C(c1ccc(F)cc1)C1CCC(CCNC(=O)COCCN(C)S(=O)(=O)c2c(Cl)cccc2Cl)CC1 (stereo not drawn) [Example 285]
[1]
  μ (binding on the μ opioid receptor, % inhibition): 69%
[2]
  5-HT (inhibition of reuptake of serotonin, % inhibition): 89%

## CN(C)C(c1ccc(F)cc1)C1CCC(NC(=O)COCC2CCCN2S(=O)(=O)c2ccc(Cl)c(Cl)c2)CC1 (stereo not drawn) [Example 344]
[1]
  μ (binding on the μ opioid receptor, % inhibition): 64%
[2]
  5-HT (inhibition of reuptake of serotonin, % inhibition): 97%

## CN(C)C(c1ccc(F)cc1)C1CCC(CNC(=O)COC2CCCCC2N(C)S(=O)(=O)c2ccc(Cl)c(Cl)c2)CC1 (stereo not drawn) [Example 359]
[1]
  μ (binding on the μ opioid receptor, % inhibition): 60%
[2]
  5-HT (inhibition of reuptake of serotonin, % inhibition): 90%

## Cc1ccc(S(=O)(=O)N2CCC(OCC(=O)NCC3CCC(C(c4ccc(Cl)cc4)N(C)C)CC3)C2)cc1 (stereo not drawn) [Example 304]
[1]
  μ (binding on the μ opioid receptor, % inhibition): 64%
[2]
  5-HT (inhibition of reuptake of serotonin, % inhibition): 88%

## CN(C)C(c1cccc(F)c1)C1CCC(NC(=O)COC2CCN(S(=O)(=O)c3ccccc3)CC2)CC1 (stereo not drawn) [Example 335]
[1]
  μ (binding on the μ opioid receptor, % inhibition): 58%
[2]
  5-HT (inhibition of reuptake of serotonin, % inhibition): 93%

## CN(C)C(c1cccc(F)c1)C1CCC(CNC(=O)COCCN(C)S(=O)(=O)c2ccc(OC(F)(F)F)cc2)CC1 (stereo not drawn) [Example 303]
[1]
  μ (binding on the μ opioid receptor, % inhibition): 66%
[2]
  5-HT (inhibition of reuptake of serotonin, % inhibition): 83%

## CN(C)C(c1ccc(Cl)cc1)C1CCC(CNC(=O)COCCN(Cc2ccccc2)S(=O)(=O)c2ccccc2)CC1 (stereo not drawn) [Example 343]
[1]
  μ (binding on the μ opioid receptor, % inhibition): 62%
[2]
  5-HT (inhibition of reuptake of serotonin, % inhibition): 94%

## Cc1ccc(S(=O)(=O)N2CCC(OCC(=O)NCCC3CCC(C(c4ccc(Cl)cc4)N(C)C)CC3)C2)cc1 (stereo not drawn) [Example 305]
[1]
  μ (binding on the μ opioid receptor, % inhibition): 63%
[2]
  5-HT (inhibition of reuptake of serotonin, % inhibition): 88%

## COc1cc(C)c(S(=O)(=O)N(C)CCOCC(=O)NCC2CCC(C(c3ccc(Cl)cc3)N(C)C)CC2)c(C)c1C (stereo not drawn) [Example 298]
[1]
  μ (binding on the μ opioid receptor, % inhibition): 64%
[2]
  5-HT (inhibition of reuptake of serotonin, % inhibition): 79%

## CN(C)C(c1cccc(F)c1)C1CCC(CCNC(=O)COC2CCCN(S(=O)(=O)c3ccccc3)C2)CC1 (stereo not drawn) [Example 326]
[1]
  μ (binding on the μ opioid receptor, % inhibition): 67%
[2]
  5-HT (inhibition of reuptake of serotonin, % inhibition): 97%

## CN(C)C(c1cccc(F)c1)C1CCC(CCNC(=O)COCCN2CCN(S(=O)(=O)c3ccccc3)CC2)CC1 (stereo not drawn) [Example 325]
[1]
  μ (binding on the μ opioid receptor, % inhibition): 68%
[2]
  5-HT (inhibition of reuptake of serotonin, % inhibition): 96%

## COc1cc(C)c(S(=O)(=O)N(C)CCOCC(=O)NCCC2CCC(C(c3ccc(Cl)cc3)N(C)C)CC2)c(C)c1C (stereo not drawn) [Example 317]
[1]
  μ (binding on the μ opioid receptor, % inhibition): 62%
[2]
  5-HT (inhibition of reuptake of serotonin, % inhibition): 88%

## COc1cc(C)c(S(=O)(=O)N(C)CCOCC(=O)NCC2CCC(C(c3ccc(Cl)cc3)N(C)C)CC2)c(C)c1 (stereo not drawn) [Example 348]
[1]
  μ (binding on the μ opioid receptor, % inhibition): 61%
[2]
  5-HT (inhibition of reuptake of serotonin, % inhibition): 83%
